Measured values as given in US20230192878A1, “METHODS, THERAPIES AND USES FOR TREATING CANCER” (PFIZER INC., priority 2020, published 2023).

How the values were obtained:
CD8+ T cells = assay: PD-1 induction on CD8+ T cells co-cultured with MM.1S-luc cells; assay type: cell-based, human; conditions: 1 nM BCMAxCD3 bispecific, ± SD
Experimental: CD3+ T cells from PBMCs (Stem Cell Technologies) were negatively selected using EasySep Human T cell enrichment kit (Stem Cell Technologies). 10,000 target Multiple Myeloma MM.1S cells expressing luciferase (MM.1S-luc) were seeded with 50,000 CD3^+ pan T cells in a clear 96-well V-bottom plate. Cells were treated with 1 nM BCMAxCD3 bispecific antibody and PD-1 expression was analyzed at 3, 24, 48 and 72 hours after addition of the BCMAxCD3 bispecific. At the specified time points, cells were collected from the wells, washed with PBS+2% FBS, and stained with ZombieNIR Viability dye (Biolegend) in PBS for 20 minutes at room temperature, followed by staining with antibodies against human CD8 and PD-1 (Biolegend). Samples were analyzed using FlowJo flow cytometry analysis software. Dead cells were removed from analysis by gating on ZombieNIR negative population. Samples were further gated on CD8^+ positive population. Percentage of PD-1+ cells is expressed as PD-1 positive cells within the CD8+ population.

Molp8 [1] = assay: Cell surface BCMA expression after GSI, time course and washout; assay type: cell-based
Experimental: (§1) Multiple myeloma cells (MM.1S, OPM2, H929, Molp8, RPMI8226) were seeded in a 6-well plate at 800,000 cells/2 ml/well with GSI diluted at 1 μM in RPMI medium (with 0.1% DMSO). Cells were collected to evaluate cell surface BCMA expression at baseline, and then at 3 hours, 6 hours and 24 hours after addition of the GSI. After 24 hours of incubation with the GSI, cells were washed twice in PBS and re-plated in fresh 6-well plates. […] At the indicated time points, samples were stained with a ZombieNIR Viability dye (Biolegend) for 20 minutes at room temperature at 1 in 500 dilution in PBS, washed with PBS+2% FBS and further stained with anti-BCMA PE-labelled antibody diluted in PBS+2% FBS for 30 minutes at 4° C. Samples were acquired on BD Flow Cytometer and analyzed using FlowJo software. Dead cells were removed from the analysis by gating on ZombieNIR negative population. BCMA MFI was plotted as a histogram.

OPM2 = assay: as above; assay type: cell-based
Experimental: as §1

MM.1S = assay: as above; assay type: cell-based
Experimental: as §1

H929 [2] = assay: as above; assay type: cell-based
Experimental: as §1

RPMI8226 [3] = assay: as above; assay type: cell-based
Experimental: as §1

H929 [4] = assay: Soluble BCMA (sBCMA) shedding after GSI (ELISA); assay type: cell-based, Human; parameters: unit not given here; conditions: Table 6 (sBCMA in supernatant, ELISA), 24 hours
Experimental: (§2) Multiple myeloma cells (MM.1S, OPM2, H929, Molp8, RPMI8226) were seeded in a 96-well U-bottom plate at 40,000 cells/well. Cells were incubated for 24 hours in the presence of GSI diluted in RPMI medium (0.1% DMSO). The following concentrations of the GSI were tested: 1000 nM, 500 nM, 100 nM, 50 nM, 25 nM, 10 nM, 5 nM, 2.5 nM, 1 nM, 0.1 nM, 0.01 nM. After 24 hours, cell culture medium was collected and concentration of sBCMA was measured in supernatants using Human BCMA/TNFRSF17 DuoSet ELISA kit (R&D Systems) according to manufacturer's instructions.

RPMI8226 [5] = assay: Soluble BCMA (sBCMA) shedding after GSI (ELISA); assay type: cell-based, Human; parameters: unit not given here; conditions: Table 6 (sBCMA in supernatant, ELISA), 24 hours
Experimental: as §2

Molp8 [6] = assay: Soluble BCMA (sBCMA) shedding after GSI (ELISA); assay type: cell-based, Human; parameters: unit not given here; conditions: Table 6 (sBCMA in supernatant, ELISA), 24 hours

Molecule: PF-06863135: heterodimeric humanized full-length bispecific antibody with one BCMA binding arm and one CD3 binding arm
- % PD-1 (of CD8+ T cells) (CD8+ T cells; 3 hours): 12.8 ± 0.6%
- % PD-1 (of CD8+ T cells) (CD8+ T cells; 24 hours): 18.9 ± 1.2%
- % PD-1 (of CD8+ T cells) (CD8+ T cells; 48 hours): 69.9 ± 3.1%
- % PD-1 (of CD8+ T cells) (CD8+ T cells; 72 hours): 69.9 ± 3.1%

Molecule: CCC[C@H](N[C@H]1CCc2cc(F)cc(F)c2C1)C(=O)Nc1cn(C(C)(C)CNCC(C)(C)C)cn1 [GSI, nirogacestat]
- BCMA (-PE) MFI (Molp8 [1]; Molp8, GSI 1 μM for 24 h, 3 h post wash): 7523
- BCMA (-PE) MFI (Molp8 [1]; Molp8, GSI 1 μM for 24 h, 5 h post wash): 5050
- BCMA (-PE) MFI (Molp8 [1]; Molp8, GSI 1 μM for 24 h, 24 h post wash): 2960
- BCMA (-PE) MFI (Molp8 [1]; Molp8, GSI 1 μM, 3 h after GSI): 2461
- BCMA (-PE) MFI (Molp8 [1]; Molp8, GSI 1 μM, 6 h after GSI): 3098
- BCMA (-PE) MFI (Molp8 [1]; Molp8, GSI 1 μM, 24 h after GSI): 5307
- BCMA (-PE) MFI (OPM2; OPM2, GSI 1 μM for 24 h, 3 h post wash): 21621
- BCMA (-PE) MFI (OPM2; OPM2, GSI 1 μM for 24 h, 5 h post wash): 11050
- BCMA (-PE) MFI (OPM2; OPM2, GSI 1 μM for 24 h, 24 h post wash): 2624
- BCMA (-PE) MFI (OPM2; OPM2, GSI 1 μM, 3 h after GSI): 9257
- BCMA (-PE) MFI (OPM2; OPM2, GSI 1 μM, 6 h after GSI): 9854
- BCMA (-PE) MFI (OPM2; OPM2, GSI 1 μM, 24 h after GSI): 20592
- BCMA (-PE) MFI (MM.1S; GSI 1 μM for 24 h, 3 h post wash): 33509
- BCMA (-PE) MFI (MM.1S; GSI 1 μM for 24 h, 5 h post wash): 23906
- BCMA (-PE) MFI (MM.1S; GSI 1 μM for 24 h, 24 h post wash): 11170
- BCMA (-PE) MFI (MM.1S; GSI 1 μM, 3 h after GSI): 13690
- BCMA (-PE) MFI (MM.1S; GSI 1 μM, 6 h after GSI): 14920
- BCMA (-PE) MFI (MM.1S; GSI 1 μM, 24 h after GSI): 25602
- BCMA (-PE) MFI (H929 [2]; H929, GSI 1 μM for 24 h, 3 h post wash): 15422
- BCMA (-PE) MFI (H929 [2]; H929, GSI 1 μM for 24 h, 5 h post wash): 9313
- BCMA (-PE) MFI (H929 [2]; H929, GSI 1 μM for 24 h, 24 h post wash): 8423
- BCMA (-PE) MFI (H929 [2]; H929, GSI 1 μM, 3 h after GSI): 3653
- BCMA (-PE) MFI (H929 [2]; H929, GSI 1 μM, 6 h after GSI): 3423
- BCMA (-PE) MFI (H929 [2]; H929, GSI 1 μM, 24 h after GSI): 8245
- BCMA (-PE) MFI (RPMI8226 [3]; RPMI8226, GSI 1 μM for 24 h, 3 h post wash): 6557
- BCMA (-PE) MFI (RPMI8226 [3]; RPMI8226, GSI 1 μM for 24 h, 5 h post wash): 4437
- BCMA (-PE) MFI (RPMI8226 [3]; RPMI8226, GSI 1 μM for 24 h, 24 h post wash): 2688
- BCMA (-PE) MFI (RPMI8226 [3]; RPMI8226, GSI 1 μM, 3 h after GSI): 4437
- BCMA (-PE) MFI (RPMI8226 [3]; RPMI8226, GSI 1 μM, 6 h after GSI): 4527
- BCMA (-PE) MFI (RPMI8226 [3]; RPMI8226, GSI 1 μM, 24 h after GSI): 6340
- BCMA (-PE) MFI (H929 [4]; H929, GSI 0.01 nM): 24084.8
- BCMA (-PE) MFI (H929 [4]; H929, GSI 0.1 nM): 27414.8
- BCMA (-PE) MFI (H929 [4]; H929, GSI 1 nM): 19516.4
- BCMA (-PE) MFI (H929 [4]; H929, GSI 2.5 nM): 12874.8
- BCMA (-PE) MFI (H929 [4]; H929, GSI 5 nM): 8438.2
- BCMA (-PE) MFI (H929 [4]; H929, GSI 10 nM): 4901.7
- BCMA (-PE) MFI (H929 [4]; H929, GSI 25 nM): 2336.4
- BCMA (-PE) MFI (H929 [4]; H929, GSI 50 nM): 1460.7
- BCMA (-PE) MFI (H929 [4]; H929, GSI 100 nM): 1110.6
- BCMA (-PE) MFI (H929 [4]; H929, GSI 500 nM): 716.5
- BCMA (-PE) MFI (H929 [4]; H929, GSI 1000 nM): 625.1
- BCMA (-PE) MFI (RPMI8226 [5]; RPMI8226, GSI 0.01 nM): 4710.8
- BCMA (-PE) MFI (RPMI8226 [5]; RPMI8226, GSI 0.1 nM): 3333.8
- BCMA (-PE) MFI (RPMI8226 [5]; RPMI8226, GSI 1 nM): 2647.5
- BCMA (-PE) MFI (RPMI8226 [5]; RPMI8226, GSI 2.5 nM): 2398
- BCMA (-PE) MFI (RPMI8226 [5]; RPMI8226, GSI 5 nM): 2525.6
- BCMA (-PE) MFI (RPMI8226 [5]; RPMI8226, GSI 10 nM): 1926.2
- BCMA (-PE) MFI (RPMI8226 [5]; RPMI8226, GSI 25 nM): 836.5
- BCMA (-PE) MFI (RPMI8226 [5]; RPMI8226, GSI 50 nM): 249.5
- BCMA (-PE) MFI (RPMI8226 [5]; RPMI8226, GSI 100 nM): 64.1
- BCMA (-PE) MFI (RPMI8226 [5]; RPMI8226, GSI 500 nM): 0 ± 0
- BCMA (-PE) MFI (RPMI8226 [5]; RPMI8226, GSI 1000 nM): 0 ± 0
- BCMA (-PE) MFI (Molp8 [6]; Molp8, GSI 0.01 nM): 6887.3
- BCMA (-PE) MFI (Molp8 [6]; Molp8, GSI 0.1 nM): 6363.4
- BCMA (-PE) MFI (Molp8 [6]; Molp8, GSI 1 nM): 6072.9
- BCMA (-PE) MFI (Molp8 [6]; Molp8, GSI 2.5 nM): 6765.5
- BCMA (-PE) MFI (Molp8 [6]; Molp8, GSI 5 nM): 5989.3
- BCMA (-PE) MFI (Molp8 [6]; Molp8, GSI 10 nM): 5958.9
- BCMA (-PE) MFI (Molp8 [6]; Molp8, GSI 25 nM): 3021.7
- BCMA (-PE) MFI (Molp8 [6]; Molp8, GSI 50 nM): 1044.3
- BCMA (-PE) MFI (Molp8 [6]; Molp8, GSI 100 nM): 431.8
- BCMA (-PE) MFI (Molp8 [6]; Molp8, GSI 500 nM): 87.3
- BCMA (-PE) MFI (Molp8 [6]; Molp8, GSI 1000 nM): 51.6
